In patent publication US20210170033A1, “NOVEL CONJUGATES OF A PHARMACEUTICAL AGENT AND A MOIETY CAPABLE OF BINDING TO A GLUCOSE SENSING PROTEIN” (SANOFI, priority 2017, published 2021):

test system: A2780 cells; assay: Deoxy-glucose uptake assay in A2780 cells (14C 2-deoxy-D-glucose transport); format: cell-based; conditions: Homo sapiens, 20 min; inhibition of 14C 2-deoxy-D-glucose transport into A2780 cells; 20 min compound incubation; read-out: IC50
Procedure: 1. Deoxy-Glucose Uptake Assay in A2780 Cells:
For measurement of ^14C 2-deoxy-D-glucose transport into A2780 cells, cells were seeded in 96-well plates (Cytostar-T Plates Perkin Elmer, 70,000 cells/180 μl/well) in medium complete (RPMI1640+Glutamax (Life technologies #61870)) and grown for 48 hours. After 48 h, cells were washed once with 180 μL KRB (Krebs Ringer Bicarbonate) buffer, and stimulated in a dose dependent manner by adding 10 μL of test compound dilution 0-1.1 mM (11 times higher concentration than final) or 10 μL of 1.1 mM Cytochalasin B solution as negative control, to 90 μL KRB buffer and incubated for 20 minutes. After compound stimulation, the transport of ^14C 2-deoxy-D-glucose was started by adding of 50 μL 2-^14C[U] 2-deoxy-D-glucose solution (109.1 μM 2-deoxy-D-glucose cold and 33 μM 2-^14C[U] 2-deoxy-D-glucose 0.1 μCi/well) for 20 minutes. Transport was stopped by adding 50 μL/well 96 μM Cytochalasin B solution. Plates were measured in a 96-well Wallac Microbeta device. The cpm (counts per minute) values were used to determine the % inhibition values for the test compounds within each experiment. In a first step, the mean background value generated by Cytochalasin B (a potent glucose transporter inhibitor) treated cells, was subtracted from the mean values of the treated cells. All mean values were obtained from triplicates. For %-Inhibition results, the mean value of the untreated cells (just KRB) was set as 100%. All other mean values were calculated to this relation. IC50 were obtained by regression analysis of dose response curve with 7 or 14 concentrations, respectively, for each compound.

Row | IC50 [µM] | SMILES
1 | 27.9 | COc1cc(OCc2cccc(NC(=O)CCCCCCCCC(=O)NCCCCCC(=O)OC(C)(C)C)c2)c(Cl)cc1C(=O)N[C@H]1[C@@H](OC)O[C@H](CO)[C@@H](O)[C@@H]1O [Example 467]
2 | 49.9 | COC(=O)[C@H](CCCCNC(=O)CCCCCCCCC(=O)Nc1cccc(COc2c(Cl)cc(C(=O)N[C@H]3[C@@H](OC)O[C@H](CO)[C@@H](O)[C@@H]3O)c(C)c2Cl)c1)NC(=O)OC(C)(C)C [Example 465]
3 | 5.6 | COc1ncc(COc2c(Cl)c(C)c(C(=O)O[C@H]3[C@@H](OC)O[C@H](CO)[C@@H](O)[C@@H]3O)c(OC)c2Cl)cc1Cl [Example 126]
4 | 0.24 | COc1cc(OCc2sc(C)nc2C(F)(F)F)c(Cl)cc1C(=O)O[C@H]1[C@@H](OC)O[C@H](CO)[C@@H](O)[C@@H]1O [Example 478]
5 | 20.2 | COC(=O)[C@H](CCCCNC(=O)COCCOCC(=O)NCc1cccc(COc2cc(OC)c(C(=O)O[C@H]3[C@@H](OC)O[C@H](CO)[C@@H](O)[C@@H]3O)cc2Cl)c1)NC(=O)OC(C)(C)C [Example 399]
6 | 4 | COc1cc(OCc2cccc(OCCCCCC(=O)OC(C)(C)C)c2)c(Cl)cc1C(=O)N[C@H]1[C@@H](OC)O[C@H](CO)[C@@H](O)[C@@H]1O [Example 394]
7 | 27.4 | COc1cc(OCc2cccc(CNC(=O)CCC(=O)OC(C)(C)C)c2)c(Cl)cc1C(=O)O[C@@H]1[C@@H](O)[C@@H](OC)O[C@H](CO)[C@H]1O [Example 363]
8 | 0.4 | COc1cc(OCc2cccc(NC(=O)OC(C)(C)C)c2)c(Cl)cc1C(=O)N[C@H]1[C@@H](OC)O[C@H](CO)[C@@H](O)[C@@H]1O [Example 359]
9 | 17.3 | COC(=O)c1cccn2cc(COc3cc(OC)c(C(=O)N[C@H]4[C@@H](OC)O[C@H](CO)[C@@H](O)[C@@H]4O)cc3Cl)nc12 [Example 396]
10 | < 0.1 | COc1cc(OCc2cnc(-c3ccc(Cl)cc3)o2)c(Cl)cc1C(=O)O[C@H]1[C@@H](OC)O[C@H](CO)[C@@H](O)[C@@H]1O [Example 475]
11 | 0.5 | CO[C@H]1O[C@H](CO)[C@@H](O)[C@H](O)[C@H]1OC(=O)c1cc(Cl)c(OCc2ccc3c(c2)nnn3C)c(Cl)c1C [Example 261]
12 | 2.2 | CO[C@H]1O[C@H](CO)[C@@H](O)[C@H](O)[C@H]1NC(=O)c1cc(Cl)c(OCc2ccccc2)cc1C [Example 297]
13 | 1.6 | CO[C@H]1O[C@H](CO)[C@@H](O)[C@H](O)[C@H]1OC(=O)c1cc(Cl)c(OCc2cccc(CNC(=O)[C@H](CC(C)C)NC(=O)OC(C)(C)C)c2)c(Cl)c1C [Example 278]
14 | 85.9 | COc1cc(OCc2cccc(OCCCCCC(=O)O)c2)c(Cl)cc1C(=O)N[C@H]1[C@@H](OC)O[C@H](CO)[C@@H](O)[C@@H]1O [Example 398]
15 | 34.3 | COC(=O)[C@H](CCCCNC(=O)CCCC(=O)NCc1cccc(COc2cc(OC)c(C(=O)O[C@H]3[C@@H](OC)O[C@H](CO)[C@@H](O)[C@@H]3O)cc2Cl)c1)NC(=O)OC(C)(C)C [Example 391]
16 | 21.7 | COc1cc(C(=O)N[C@H]2[C@@H](OC)O[C@H](CO)[C@@H](O)[C@@H]2O)cc(Cl)c1OCc1nc2ccccc2n1C(C)C [Example 238]
17 | 3.4 | COc1cc(OCc2cccc(NC(=O)CCCCCCC(=O)NCCCCCC(=O)OC(C)(C)C)c2)c(Cl)cc1C(=O)N[C@H]1[C@@H](OC)O[C@H](CO)[C@@H](O)[C@@H]1O [Example 466]

same assay, conditions: Homo sapiens, A2780, 20 min

Row | SMILES | IC50 [µM]
18 | COc1cc(C(=O)OC[C@H]2O[C@@H](OCC[Si](C)(C)C)[C@H](O)[C@@H](O)[C@@H]2O)cc(Cl)c1OC(=O)c1ccccc1 [Example 36] | 47.4

same assay, conditions: Homo sapiens; inhibition of 14C 2-deoxy-D-glucose transport into A2780 cells at 100 μM; read-out: % inh. at 100 μM

Row | SMILES | inhibition at 100 µM [%]
19 | O=C(NC[C@@H]1O[C@H](CO)[C@@H](O)[C@H](O)[C@H]1O)c1ccc(COc2ccccc2)o1 [Example 490] | 20

test system: A2780 Human Carcinoma Cells; assay: Glucose displacement assay (ATP measurement, CellTiter-Glo); format: cell-based; conditions: ATP measurement in A2780 cells, 0.5 μM rotenone, 1 mM glucose, read-out: IC50 [μM] at 1 mM glucose
Procedure: 2. Glucose Displacement Assay (ATP Measurement)
30,000 A2780 Human Carcinoma Cells are seeded per well in a Greiner 96-well plate. Cells are expanded and cultured in RPMI 1640 medium+GlutaMAX® with 10% FCS and 11 mM glucose, at 37° C. with 5% CO2. After 44 h, culture media is changed and washed once with PBS to starvation media consisting of RPMI 1640 medium with 1% FCS without glucose for 2 hours. Cells are then washed with KRB buffer, followed by incubation for 20 min at 37° C. of the treatment mix consisting of 60 μL KRB buffer/well and 10 μL of compound or DMSO 10×. 10 μl of rotenone is added to the mix to a final concentration of 0.5 μM. Cell plates are left for 2 min at room temperature. 20 μL of different glucose concentrations are added to the mix—typically 0.1 to 10 mM range—.
Cells are incubated for another 15 min at 37° C., before measuring ATP with the CellTiter-Glo® Assay, under manufacturer's guidance, but without the equilibration step at room temperature for 30 min. In brief, 100 μl of Cell-Titer-Glo® Reagent is added to the wells containing already 100 μl of the previous reaction mix. Plates are mixed for 2 min at 800 rpm, followed by incubation at room temperature for 10 min to stabilize the luminescent signal. Luminescence is then recorded with the Tekan Ultra Evolution reader.

Row | IC50 [µM] | SMILES
20 | 3.2 | COc1cc(C(=O)O[C@H]2[C@@H](OC)O[C@H](CO)[C@@H](O)[C@@H]2O)cc(Cl)c1OCc1cccc(NC(=O)CCc2cc(C)nn2C)c1 [Example 313]

same assay, conditions: ATP measurement in A2780 cells, 0.5 μM rotenone, 10 mM glucose, read-out: IC50 [μM] at 10 mM glucose

Row | IC50 [µM] | SMILES
21 | 18.8 | COc1cc(C(=O)O[C@H]2[C@@H](OC)O[C@H](CO)[C@@H](O)[C@@H]2O)cc(Cl)c1OCc1cccc(NC(=O)CCc2cc(C)nn2C)c1 [Example 313]
